The source of these data is patent US5486601A, “Trisazo dye, and aqueous ink composition containing the same” (priority 1993, dated 1996).

Data set [1] is described as follows: Stability of tetrazonium salt. The data set is classed as physicochemical.
Data set [2] in a line: AMES test / mutagenicity as stated in general text. Particulars: dye intermediate.
The conditions of data set [3]: background statement on known dyes; cited from earlier work.
Data set [4] can be described thus: Solubility of dye (Na salt) in water. In kind it is physicochemical. As for the experimental part:
Evaluation Method of Solubility of Dye
A Na salt (2 g) of the resulting dye was dissolved in water (10 g), and the dye solution was filtered and concentrated/dried to determine a solubility (g of dye/100 g of water) of the dye.

In data set [5] the test system is strain TA98. Put plainly: AMES test (reverse mutagenicity test), strain TA98, with and without S-9. The note with it: TA98, with and without S9, 20 to 5000 μg/plate. The data set is classed as cell-based. The method, then: (§1) Regarding specimen solutions containing the trisazo compounds (dyes) of the present invention obtained in Examples 1 to 9 and dyes of Comparative Examples 1 to 3, respectively, the total number of the mutant colony was determined using the strain TA98. When the resulting magnification is not more than 2, it is evaluated as "negative". On the other hand, when the resulting magnification is not less than 2, it is evaluated as "positive".
(§2) In Table 1, the modification in case that no drug-metabolizing active enzyme S-9 is added is shown in the column "-" and the modification in case that a drug-metabolizing active enzyme S-9 is added is shown in the column "+".

Test in data set [6]: as above
The data set is classed as cell-based. Particulars: read-out: magnification of the total number of the mutant colony to the control. As for the experimental part: as §1, §2

Structures can show the parent of a compound that is named as a salt. Where two headings read alike, the source gives them in different places.

Take `N#[N+]c1ccc(C2(c3ccc([N+]#N)cc3)CCCCC2)cc1` [tetrazonium salt, tetrazonium salt of 1,1-bis(4-aminophenyl)cyclohexane]: the “stability of tetrazonium salt” value in data set [1] was “comparatively stable”.

Regarding `Nc1ccc(C2(c3ccc(N)cc3)CCCCC2)cc1` [1,1-bis(4-aminophenyl)cyclohexane], in data set [2], the mutagenicity result is “negative”.

For `Nc1ccc(N=Nc2ccc(N=Nc3c(S(=O)(=O)[O-])cc4cc(S(=O)(=O)[O-])c(N=Nc5ccc(N=Nc6ccc(N)cc6N)cc5)c(O)c4c3N)cc2)c(N)c1.[Na+].[Na+]` [Comparative Example 1, C.I. Direct Black 19, reference compound], the “results of AMES test” value in data set [3] is reported as “false positive or positive”. Besides, in data set [4], the “Solubility Dye(g)/water (100 g)” value is given as 20 g of dye/100 g of water and the “Solubility Evaluation” value is given as “.circleincircle. (solubility is not less than 15)”. In addition, in data set [5], the “AMES Evaluation” value is “Positive (when the resulting magnification is not less than 2, it is evaluated as "positive")”.

For the compound “C.I. Direct Black 168 [Comparative Example 3, reference compound]”, the “results of AMES test” value in data set [3] is “false positive or positive”. In addition, in data set [4], the “Solubility Dye(g)/water (100 g)” value is listed as 20 g of dye/100 g of water and the “Solubility Evaluation” value is recorded as “.circleincircle. (solubility is not less than 15)”.

Regarding `CCCCc1ccc(N=Nc2c(S(=O)(=O)O)cc3cc(S(=O)(=O)O)c(N=Nc4ccc(C5(c6ccc(N=Nc7ccc(N(CC)CC)cc7C)cc6)CCCCC5)cc4)c(N)c3c2O)cc1` [Example 7], the “Solubility Dye(g)/water (100 g)” value in data set [4] is listed as 12 g of dye/100 g of water. The “Solubility Evaluation” value in data set [4] is reported as “.smallcircle. (solubility is within a range from 10 to 15)”. Besides, the “AMES Evaluation” value in data set [5] is on record as “Negative (When the resulting magnification is not more than 2, it is evaluated as "negative")”. The fold induction in data set [6] (s9, TA98, with S9, 20 μg/plate) came out at 1.03; in data set [6] (s9, TA98, with S9, 78 μg/plate), 0.92; in data set [6] (s9, TA98, with S9, 313 μg/plate), 0.81; in data set [6] (s9, TA98, with S9, 1250 μg/plate), 1.08; in data set [6] (s9, TA98, with S9, 5000 μg/plate) it was 1.03; in data set [6] (s9, TA98, without S9, 20 μg/plate) it was 1.05. Moreover, the fold induction in data set [6] (s9, TA98, without S9, 78 μg/plate) stood at 1.1; in data set [6] (s9, TA98, without S9, 313 μg/plate), 0.9; in data set [6] (s9, TA98, without S9, 1250 μg/plate), 0.62; in data set [6] (s9, TA98, without S9, 5000 μg/plate), 1.1.

Take `Cc1cc(-c2ccc(N=Nc3c(S(=O)(=O)[O-])cc4cc(S(=O)(=O)[O-])c(N=Nc5ccccc5)c(O)c4c3N)c(C)c2)ccc1N=Nc1ccc(N)cc1N.[Na+].[Na+]` [Comparative Example 2, C.I. Direct Black 154, reference compound]: in data set [3], the “results of AMES test” value is given as “false positive or positive”. Besides, in data set [4], the “Solubility Dye(g)/water (100 g)” value was 20 g of dye/100 g of water and the “Solubility Evaluation” value was “.circleincircle. (solubility is not less than 15)”. Further, in data set [5], the “AMES Evaluation” value is on record as “Positive (when the resulting magnification is not less than 2, it is evaluated as "positive")”.
